Assay results taken from patent US20160152831A1, “YELLOW COLORANT FOR HAIR DYEING, COMPOSITION FOR HAIR DYEING, AND HAIR DYEING METHOD” (HODOGAYA CHEMICAL CO., LTD., priority 2013, published 2016).

Legend:
[1] = Shampooing-fastness test of dyed hair; format: physicochemical, human; conditions: for Color Difference (ΔE*): before vs after test; for Color Difference (ΔE*) / Residual Ratio %: 5 cycles; for Residual Ratio %: dyeing density after test to before test
Experimental: The test sample with Yellow 29 prepared in Example 1 was tested according to the shampooing-fastness test mentioned below, and the dyeing density (K/Sd) and color difference (ΔE*) before and after the test were determined. In the Table, the residual ratio (%) means the ratio of the dyeing density after the test to the dyeing density before the test.
The test sample was subjected to a cycle operation of (1) shampooing followed by (2) treatment as mentioned below, repeatedly five times in all, and then spontaneously dried at room temperature (about 20° C.).
Shampoo liquid: aqueous 5% sodium laurylsulfate solution
Bath ratio: 1/10 (mass of shampooing liquid relative to 1 g mass of dyed hair)
Processing temperature: 45° C.
Processing time: 20 minutes
Post-treatment: rinsing with water
Treatment liquid: aqueous 5% trimethylstearylammonium chloride solution
Bath ratio: 1/10 (mass of treatment liquid relative to 1 g mass of dyed hair)

[2] = Light-fastness test of dyed hair (xenon fade meter); format: physicochemical, human; conditions: 330 W/m^2, 20 hours; for Color Difference (ΔE*): before vs after test; for Residual Ratio %: dyeing density after test to before test
Experimental: A composition for hair dyeing having a pH of 6 was prepared according to the compounding formation as shown in Table 6 by using Yellow 29 as the dye. By using the thus-prepared composition for hair dyeing, a test sample was prepared according to the same method as in Example 1. The resultant test sample was exposed to white light at an irradiation dose of 330 W/m^2 for 20 hours, by using a xenon long-life fade meter light-fastness tester Suga Test Instrument, FAL-25AX-HC-BEC Model), and the dyeing density (K/Sd) and the color values (L*, a*, b*) before and after the test, and the color difference (ΔE*) were determined. The light-fastness test was carried out under the condition where the temperature of the test sample could be from 60 to 66° C.

Row | Structure (SMILES) | Color Difference (ΔE*) [1] | shampooing-fastness ([1]; compared with Yellow 87) | Residual Ratio % [1] | light-fastness [2] | Color Difference (ΔE*) [2] | Residual Ratio % [2]
1 | Cc1ccc(N(C)/N=C/C2=[N+](C)c3ccccc3C2(C)C)cc1 [Yellow 29, C. I. Basic Yellow 29] | 6.6 | extremely excellent | 82% | excellent | 2.8 | 89%
2 | Cc1nn(-c2ccccc2)c(O)c1/N=N/c1cccc([N+](C)(C)C)c1.[Cl-] [Yellow 57, C.I. Basic Yellow 57, reference compound] |  |  |  | low | 10.2 | 98%
3 | CN(/N=C\c1cc[n+](C)cc1)c1ccccc1 [Yellow 87, C.I. Basic Yellow 87, reference compound] | 21.8 |  | 33% |  |  | 
